Test results from patent publication US20240058316A1, “PRODRUG OF A PHENOLIC TRPV1 AGONIST FOR THE TREATMENT OF PAIN” (Concentric Analgesics, Inc., priority 2020, published 2024).

Experiments:
[1] = background statement; cited from earlier work
[2] = system: pain in subjects undergoing surgery to repair a ventral hernia; experiment: Randomized, double-blind, placebo-controlled study in subjects undergoing ventral hernia repair (laparotomy); format: in vivo, human
Protocol: Using the general delivery technique identified in Part A, this dose, concentration and volume will be assessed compared to a placebo in a pilot, double-blind, randomized, parallel-group design (see Figure). […] Study treatment was administered intraoperatively as a single administration via infiltration/instillation into the “surgical site” prior to wound closure. In general, the intent was to deliver local anesthetic into the surgical site “on the way in” (upon adequate exposure of and prior to incision/dissection of target tissues). […] The “surgical site” is defined as the area extending approximately at least 2-3 cm in all directions (lateral/medial/proximal/distal/deep) from the margins of substantially all tissue traumatized by the surgical procedure, i.e., all tissue dissected, cut, electrocauterized (bovied), sutured or tacked, including both deep and superficial areas. The surgical site include sthe full area of surgical mesh placement. […] The surgery was performed under general anesthesia with the following guidelines: • Inhaled anesthetic or propofol infusion with or without nitrous oxide (N20). • Adequate optional premedication typically with midazolam (up to 5 mg), fentanyl (up to 100 mcg), more can be given if indicated • Supplemental anesthesia and sedation will be per institutional guidelines Intra-operative titration of intravenous (IV) fentanyl, including during emergence, will be per institutional guidelines. In addition, patients received bupivacaine hydrochloride (BupiHCl) 175 mg delivered as follows: • Prior to start of surgery under ultrasound guidance: • BupiHCl 0.25%, 30 mL (75 mg) diluted with 10 mL of normal saline to a volume of 40 mL delivered as a rectus block with 20 mL on each side. • Immediately before/after surgical incision: • BupiHCl 0.25%, 40 mL (100 mg), may be diluted in up to 110 mL of normal saline to a total volume of not more than 150 mL: Infiltration of abdominal wall, anterior rectus abdominis sheath, posterior rectus abdominis sheath, other fascia, peritoneum (including circumferential areas of intended mesh placement) Standard supplemental anesthetic and perioperative care was provided per institutional guidelines. This typically included (but not be limited to) steps to ensure preservation of intraoperative normothermia (including the use of preoperative and intraoperative forced-air warming) and deep venous thrombosis prophylaxis. Patients received general anesthesia and bilateral rectus blocks. […]

[3] = system: pain following TKA surgery; experiment: Phase 1/2 randomized, double-blind, placebo-controlled study in patients undergoing total knee arthroplasty (TKA); format: in vivo, human
Protocol: • This is a two-part, Phase 1/2, randomized, double-blind, placebo-controlled study. In Part A, 2 or more exploratory sequential dose-escalation cohorts will be evaluated, each with administration of a single dose of Compound 1 or placebo infiltrated/instilled during surgery in patients undergoing TKA (FIG. 5).
• 1. Cohort #1: total N=8 patients randomized 3:1 Compound 1 36 mg in 120 mL (0.3 mg/mL) or placebo 120 mL • 2. Cohort #2: total N=8 patients randomized 3:1 Compound 1 60 mg in 120 mL (0.5 mg/mL) or placebo 120 mL • 3. Cohort #2: total N=8 patients randomized 3:1 Compound 1 90 mg in 120 mL (0.75 mg/mL) or placebo 120 mL
• 1. Cohort #1: total N=˜97 patients randomized 2:1 Compound 1 36 mg in 120 mL (0.3 mg/mL) or placebo 120 mL • 2. Cohort #2: total N=˜97 patients randomized 2:1 Compound 1 60 mg in 120 mL (0.5 mg/mL) or placebo 120 mL
Subjects underwent unilateral total knee arthroplasty (replacement) (TKA). […]
Following surgery, patients were transferred to the PACU where they underwent an assessment of safety and efficacy over the next 96 (±4) hours. T0 is the time of admission into the PACU (as recorded in notes by the PACU nurse). The schedule of assessments was as follows: • Patients with inadequately controlled pain may request rescue at any time during T0 to D5; however, patients will be encouraged to receive rescue medication only with an NRS ≥4. • Pain intensity (assessed with NRS). • During the inpatient stay, NRS at rest beginning with the PACU admission was able to be assessed once the patient is awake. […] Scheduled NRS scores must be recorded regardless of timing of pre-rescue medication NRS scores and administration of rescue medication. The actual time of all NRS scores must be recorded, i.e., not the nominal time. • During the inpatient stay, evoked NRS twice daily after physical therapy (most preferred) or ambulation for approximately 10 yards (preferred) or transfers to/from bed or wheelchair. […]

[4] = system: postoperative pain after a bunionectomy; experiment: Phase 2 randomized, double-blind, placebo-controlled study in subjects undergoing bunionectomy; format: in vivo, human; details: for reduction in opioid consumption: FIG. 3
Description: Compound 1 was investigated as a potential therapy for treatment of pain following bunionectomy. Compound 1 was administered (injected and instilled) directly into the postoperative wound during the surgery. This study is a follow-on placebo-controlled efficacy and safety study which includes assessments of wound healing and a PK study in enrolled subjects.
• This trial was designed to determine the efficacy of study treatment (Compound 1 vs. placebo) infiltrated/instilled during surgery in treating postoperative pain after a bunionectomy in the setting of multimodal analgesia in addition to a Mayo block with bupivacaine in the first 24 h (FIG. 1).
Protocol: This Phase 2, multi-center, randomized, double-blind, placebo-controlled, parallel design study evaluated a single dose of one of three Compound 1 dose groups vs. placebo injected during an elective BUNX with a multimodal analgesia regimen including an NSAID and regional Mayo block with bupivacaine. The study was conducted in two parts: • Inpatient period which continued to 96h after completion of study treatment injection (TO) or T96h. • Outpatient period which began on discharge from the inpatient unit through various follow visits to D29±2 (W4) after surgery, or if necessary for ongoing safety assessments, to D36±2 (W5).
Subjects underwent unilateral transpositional first metatarsal osteotomy for the correction of hallux valgus deformity (bunionectomy or BUNX). The surgery was performed under light to moderate sedation anesthesia (what constitutes this level of sedation and the additional anesthetic medications used per discretion of the anesthesiologist). In accordance with standard of care, light to moderate sedation was supplemented with a Mayo block to produce surgical anesthesia and postoperative analgesia. After administering light to moderate sedation, but prior to surgery, performed a Mayo block by infiltrating 0.5% bupivacaine hydrochloride (up to 30 mL total volume, 150 mg) at least 3 cm proximal to the “surgical site”. The Mayo block was performed at 15-30 minutes prior to study treatment dosing. “Surgical site” is defined as the area extending approximately 2-3 cm in all directions (lateral/medial/proximal/distal) from the incision site and surrounding tissues which may be affected by the infiltration of study treatment.
After the surgery, subjects were monitored for 96 hours in an inpatient unit. Safety and efficacy evaluations were performed. […] Subjects were required to meet certain pre-specified criteria prior to discharge.
T0 is the time that the study treatment injection/instillation is completed.
Following surgery, subjects were transferred to the appropriate recovery unit where they underwent various assessments over the next 96 hours (end of surgery [EOS] to T96h). In addition to the Mayo block noted above, a multimodal analgesia regimen included the following during the immediate postoperative period: • Ketorolac 30 mg IV (a non-steroidal anti-inflammatory drug (NSAID) to be administered intraoperatively before the end of surgery. Per investigator discretion, adjust the dose as necessary for subject age and medical condition. • Acetaminophen 1000 mg IV to be administered intraoperatively before the end of surgery.
After the non-opioid analgesics noted above has been administered, no additional NSAIDs or acetaminophen were administered during the inpatient phase of the study (through T96h). Additionally, the following rescue medication was able to be administered for any moderate to severe breakthrough pain during the inpatient period: • PO oxycodone 5 mg prn q2h in the first 12 hours after surgery for moderate or severe pain (≥4) as reported by subjects using the 0 to 10 numerical rating scale of current pain intensity (NRS). • PO oxycodone 5 mg prn q4h from 12 to 96 hours after surgery for moderate or severe pain (NRS≥4).
After surgery, subjects were monitored for 96 hours (through T96h) at the trial site as an inpatient.

[5] = Aqueous solubility (descriptive statement); format: physicochemical
[6] = bunionectomy, 4.2 mg (0.3 mg/mL)

SMILES	solubility in aqueous media or local anesthetic solutions [1]	reductions in pain ([2]; 36 mg (0.3 mg/mL))	reduction in pain at rest compared to placebo ([2]; 36 mg (0.3 mg/mL), FIG. 9) [%]	reduction in pain with coughing compared to placebo ([2]; 36 mg (0.3 mg/mL), FIG. 9) [%]	reduction in opioid consumption compared to placebo ([2]; FIG. 9) [%]	reductions in pain ([3]; 36 mg (0.3 mg/mL), FIG. 7)	reduction in opioid consumption ([3]; 36 mg (0.3 mg/mL), FIG. 8)	analgesic activity ([3]; 60 mg (0.5 mg/mL), compared with 36 mg)	pain reduction ([4]; bunionectomy, 0.15 mg/mL (2.1 mg), FIG. 2)	reduction in opioid consumption ([4]; bunionectomy, 2.1 mg (0.15 mg/mL))	reduction in pain [4, 6]	reduction in opioid consumption [4, 6]	persistence of analgesic effect ([4]; bunionectomy, 4.2 mg, FIG. 4) [days]	dose of maximum analgesic effect ([4]; bunionectomy, concentration of 0.3 mg/mL) [mg]	reductions of pain and opioid consumption ([4]; single administration during surgery, bunionectomy patients)	water solubility [5]
COc1cc(CNC(=O)CCCC/C=C/C(C)C)ccc1O [Capsaicin]	virtually insoluble	–	–	–	–	–	–	–	–	–	–	–	–	–	–	–
CNCC1CCCCN1C(=O)Oc1ccc(CNC(=O)CCCC/C=C/C(C)C)cc1OC (stereo not shown) [Compound 1, (E)-2-methoxy-4-((8-methylnon-6-enamido)methyl)phenyl 2-((methylamino)methyl)piperidine-1-carboxylate]	–	long lasting reductions in pain	21	46	26	long lasting reductions in pain	significant reduction in opioid consumption	lower analgesic activity which was of a shorter duration	trend in pain reduction	statistically significant reduction in opioid consumption	statistically significant reduction in pain	statistically significant reduction in opioid consumption	≥ 15	4.2	long lasting reductions of pain and opioid consumption	highly water-soluble
